ChEMBL document CHEMBL5465560, “Selectivity Literature for EUbOPEN Chemogenomic Library” (2024)
Each block holds one compound with its values, some of them ahead of it.

What was measured:
[1] = molecular target: T1, Serine/threonine-protein kinase tousled-like 1 (Homo sapiens) (UniProt Q9UKI8); test: Selectivity interaction (KinomeScan (DiscoverX)) EUB0000607a TLK1; conditions: at 10 µM
T1 sequence (whole entry): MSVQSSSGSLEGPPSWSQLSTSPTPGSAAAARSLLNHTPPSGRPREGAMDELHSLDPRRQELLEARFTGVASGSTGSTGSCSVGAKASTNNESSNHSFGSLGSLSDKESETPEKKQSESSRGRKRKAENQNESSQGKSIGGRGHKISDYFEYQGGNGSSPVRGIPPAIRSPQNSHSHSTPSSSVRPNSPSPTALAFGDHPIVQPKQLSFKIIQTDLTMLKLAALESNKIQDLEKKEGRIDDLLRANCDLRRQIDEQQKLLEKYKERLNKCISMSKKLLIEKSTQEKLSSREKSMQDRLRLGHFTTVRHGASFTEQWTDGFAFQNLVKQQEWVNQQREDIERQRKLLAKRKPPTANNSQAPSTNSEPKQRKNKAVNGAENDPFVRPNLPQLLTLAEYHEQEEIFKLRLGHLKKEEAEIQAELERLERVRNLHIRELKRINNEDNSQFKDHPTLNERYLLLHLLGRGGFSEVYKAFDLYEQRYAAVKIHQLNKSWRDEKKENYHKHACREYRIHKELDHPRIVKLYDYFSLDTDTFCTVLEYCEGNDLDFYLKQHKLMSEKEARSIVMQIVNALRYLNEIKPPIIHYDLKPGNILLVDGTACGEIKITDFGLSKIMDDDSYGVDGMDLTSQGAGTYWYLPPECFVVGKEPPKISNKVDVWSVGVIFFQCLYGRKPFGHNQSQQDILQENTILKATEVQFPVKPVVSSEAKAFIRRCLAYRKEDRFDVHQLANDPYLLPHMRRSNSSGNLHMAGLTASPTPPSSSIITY

[2] = molecular target: Mitogen-activated protein kinase kinase kinase kinase 1 (Homo sapiens) (UniProt Q92918); conditions: at 10 µM
[3] = molecular target: T2, Serine/threonine-protein kinase Nek11 (Homo sapiens) (UniProt Q8NG66); test: Selectivity interaction (KinomeScan (DiscoverX)) EUB0000695a NEK11; conditions: at 100 nM
T2 sequence (whole entry): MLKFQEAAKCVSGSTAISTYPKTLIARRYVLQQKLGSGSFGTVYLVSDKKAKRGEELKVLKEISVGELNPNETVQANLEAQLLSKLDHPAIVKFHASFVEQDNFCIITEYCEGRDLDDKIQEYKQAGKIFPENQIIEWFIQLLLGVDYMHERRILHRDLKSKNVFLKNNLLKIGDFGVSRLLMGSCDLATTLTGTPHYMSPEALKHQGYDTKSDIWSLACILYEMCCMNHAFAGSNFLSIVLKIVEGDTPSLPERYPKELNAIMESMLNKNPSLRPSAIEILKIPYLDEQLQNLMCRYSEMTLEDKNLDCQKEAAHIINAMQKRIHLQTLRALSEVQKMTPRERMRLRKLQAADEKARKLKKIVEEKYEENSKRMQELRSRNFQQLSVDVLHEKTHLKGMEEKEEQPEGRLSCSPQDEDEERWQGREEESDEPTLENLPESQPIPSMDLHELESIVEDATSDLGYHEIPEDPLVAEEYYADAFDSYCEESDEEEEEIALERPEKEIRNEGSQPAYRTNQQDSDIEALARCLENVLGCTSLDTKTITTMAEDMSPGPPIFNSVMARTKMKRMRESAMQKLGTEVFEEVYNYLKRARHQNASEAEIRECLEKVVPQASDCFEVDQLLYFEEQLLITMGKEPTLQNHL

[4] = molecular target: Serine/threonine-protein kinase mTOR (Homo sapiens, UniProt P42345); test: Selectivity interaction (KinomeScan (DiscoverX)) EUB0000655a MTOR; conditions: at 10 µM
[5] = molecular target: SRSF protein kinase 2 (Homo sapiens) (UniProt P78362); test: Selectivity interaction (KinomeScan (DiscoverX)) EUB0001079a SRPK2; conditions: at 1 µM
[6] = molecular target: Casein kinase II subunit alpha (Homo sapiens, UniProt P68400); test: Selectivity interaction (Kinase panel (KiNativ target engagement assay in Jurkat cells)) EUB0001635a CSNK2A1; format: cell-based; conditions: Selectivity number of off-targets 0.0, Selectivity number of targets 233.0, Source Knowledge https://www.sciencedirect.com/science/article/pii/S2451945619300674?via%3Dihub, at 1 µM
[7] = molecular target: Homeodomain-interacting protein kinase 1 (Homo sapiens, UniProt Q86Z02); test: Selectivity interaction (KinomeScan (DiscoverX)) EUB0001619a HIPK1; conditions: at 1 µM
[8] = molecular target: T3, Mitogen-activated protein kinase 12 (Homo sapiens) (UniProt P53778); test: Selectivity interaction (KinomeScan (DiscoverX)) EUB0001619a MAPK12; conditions: at 1 µM
T3 sequence (whole entry): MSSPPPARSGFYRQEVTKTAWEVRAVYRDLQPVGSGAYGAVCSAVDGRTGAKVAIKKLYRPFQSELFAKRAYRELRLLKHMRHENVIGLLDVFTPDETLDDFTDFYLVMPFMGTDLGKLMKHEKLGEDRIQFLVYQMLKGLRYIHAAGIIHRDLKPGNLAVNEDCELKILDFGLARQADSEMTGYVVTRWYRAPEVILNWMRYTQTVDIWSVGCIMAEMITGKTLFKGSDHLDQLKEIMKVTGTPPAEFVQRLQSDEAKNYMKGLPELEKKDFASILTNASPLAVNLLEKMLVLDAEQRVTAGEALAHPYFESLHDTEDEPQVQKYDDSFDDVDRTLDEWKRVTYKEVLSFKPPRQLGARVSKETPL

Sequence of Mitogen-activated protein kinase kinase kinase kinase 1 (Homo sapiens) (Q92918 whole entry, looked up): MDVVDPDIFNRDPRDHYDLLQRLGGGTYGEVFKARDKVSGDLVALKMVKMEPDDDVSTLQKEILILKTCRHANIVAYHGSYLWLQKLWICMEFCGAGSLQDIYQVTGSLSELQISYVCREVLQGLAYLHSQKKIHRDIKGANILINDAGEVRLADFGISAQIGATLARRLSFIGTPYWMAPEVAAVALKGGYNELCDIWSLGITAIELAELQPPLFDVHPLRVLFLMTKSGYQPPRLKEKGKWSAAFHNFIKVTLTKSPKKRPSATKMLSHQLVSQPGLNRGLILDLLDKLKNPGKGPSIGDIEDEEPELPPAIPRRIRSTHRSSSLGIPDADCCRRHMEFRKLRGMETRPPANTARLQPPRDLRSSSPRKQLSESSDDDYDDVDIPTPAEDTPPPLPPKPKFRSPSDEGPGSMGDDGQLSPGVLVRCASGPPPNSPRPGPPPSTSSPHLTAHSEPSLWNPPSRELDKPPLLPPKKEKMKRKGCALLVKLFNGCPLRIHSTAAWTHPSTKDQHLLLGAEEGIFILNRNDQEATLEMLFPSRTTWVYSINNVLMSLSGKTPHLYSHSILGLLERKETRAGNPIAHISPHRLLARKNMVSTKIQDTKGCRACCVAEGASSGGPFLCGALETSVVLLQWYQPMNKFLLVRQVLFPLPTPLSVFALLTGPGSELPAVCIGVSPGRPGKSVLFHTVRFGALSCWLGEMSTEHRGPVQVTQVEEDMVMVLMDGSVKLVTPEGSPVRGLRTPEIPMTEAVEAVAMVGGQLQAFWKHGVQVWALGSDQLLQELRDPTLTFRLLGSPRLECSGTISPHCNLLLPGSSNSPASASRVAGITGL
Sequence of Homeodomain-interacting protein kinase 1 (Q86Z02 whole entry, looked up): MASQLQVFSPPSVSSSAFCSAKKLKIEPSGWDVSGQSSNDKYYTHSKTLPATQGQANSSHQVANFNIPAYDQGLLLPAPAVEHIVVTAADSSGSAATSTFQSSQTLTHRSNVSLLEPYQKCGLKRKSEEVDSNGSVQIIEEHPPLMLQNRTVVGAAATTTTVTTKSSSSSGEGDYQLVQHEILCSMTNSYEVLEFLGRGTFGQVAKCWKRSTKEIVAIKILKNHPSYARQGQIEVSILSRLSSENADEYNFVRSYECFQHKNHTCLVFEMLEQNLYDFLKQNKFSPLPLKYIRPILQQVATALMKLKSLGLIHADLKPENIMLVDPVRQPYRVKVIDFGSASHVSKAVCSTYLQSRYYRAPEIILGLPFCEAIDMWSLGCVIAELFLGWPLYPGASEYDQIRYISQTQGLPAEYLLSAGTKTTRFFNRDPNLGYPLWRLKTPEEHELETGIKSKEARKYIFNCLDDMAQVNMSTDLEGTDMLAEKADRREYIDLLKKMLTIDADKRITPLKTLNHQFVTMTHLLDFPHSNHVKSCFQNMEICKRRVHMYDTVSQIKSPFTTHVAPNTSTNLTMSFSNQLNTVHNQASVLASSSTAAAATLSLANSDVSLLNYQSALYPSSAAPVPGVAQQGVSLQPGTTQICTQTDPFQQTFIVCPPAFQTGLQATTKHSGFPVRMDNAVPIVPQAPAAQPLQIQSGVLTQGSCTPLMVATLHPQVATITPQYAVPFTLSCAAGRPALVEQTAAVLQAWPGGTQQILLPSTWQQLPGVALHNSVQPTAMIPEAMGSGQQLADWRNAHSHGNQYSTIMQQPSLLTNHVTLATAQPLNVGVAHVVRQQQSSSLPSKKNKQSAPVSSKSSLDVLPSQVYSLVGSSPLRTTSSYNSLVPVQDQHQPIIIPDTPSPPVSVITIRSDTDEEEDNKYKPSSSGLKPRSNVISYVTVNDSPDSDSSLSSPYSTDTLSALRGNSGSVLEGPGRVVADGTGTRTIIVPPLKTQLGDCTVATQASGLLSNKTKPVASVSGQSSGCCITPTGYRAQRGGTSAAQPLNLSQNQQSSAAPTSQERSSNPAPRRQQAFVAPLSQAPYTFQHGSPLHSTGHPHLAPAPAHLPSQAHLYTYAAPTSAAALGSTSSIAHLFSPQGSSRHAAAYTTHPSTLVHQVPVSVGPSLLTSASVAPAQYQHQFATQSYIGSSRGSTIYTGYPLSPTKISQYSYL
Sequence of Casein kinase II subunit alpha (P68400 whole entry, looked up): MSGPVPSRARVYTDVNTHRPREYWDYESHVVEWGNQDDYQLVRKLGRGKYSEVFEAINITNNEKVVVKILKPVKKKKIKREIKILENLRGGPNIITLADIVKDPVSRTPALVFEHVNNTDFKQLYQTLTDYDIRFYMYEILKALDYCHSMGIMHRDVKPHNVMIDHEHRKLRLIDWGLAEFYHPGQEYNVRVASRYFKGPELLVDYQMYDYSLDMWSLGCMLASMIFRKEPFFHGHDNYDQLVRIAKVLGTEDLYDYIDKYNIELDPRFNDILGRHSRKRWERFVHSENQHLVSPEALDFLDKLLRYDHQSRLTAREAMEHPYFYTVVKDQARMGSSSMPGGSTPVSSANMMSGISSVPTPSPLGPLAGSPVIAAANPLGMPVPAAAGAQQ
Sequence of SRSF protein kinase 2 (Homo sapiens) (P78362 whole entry, looked up): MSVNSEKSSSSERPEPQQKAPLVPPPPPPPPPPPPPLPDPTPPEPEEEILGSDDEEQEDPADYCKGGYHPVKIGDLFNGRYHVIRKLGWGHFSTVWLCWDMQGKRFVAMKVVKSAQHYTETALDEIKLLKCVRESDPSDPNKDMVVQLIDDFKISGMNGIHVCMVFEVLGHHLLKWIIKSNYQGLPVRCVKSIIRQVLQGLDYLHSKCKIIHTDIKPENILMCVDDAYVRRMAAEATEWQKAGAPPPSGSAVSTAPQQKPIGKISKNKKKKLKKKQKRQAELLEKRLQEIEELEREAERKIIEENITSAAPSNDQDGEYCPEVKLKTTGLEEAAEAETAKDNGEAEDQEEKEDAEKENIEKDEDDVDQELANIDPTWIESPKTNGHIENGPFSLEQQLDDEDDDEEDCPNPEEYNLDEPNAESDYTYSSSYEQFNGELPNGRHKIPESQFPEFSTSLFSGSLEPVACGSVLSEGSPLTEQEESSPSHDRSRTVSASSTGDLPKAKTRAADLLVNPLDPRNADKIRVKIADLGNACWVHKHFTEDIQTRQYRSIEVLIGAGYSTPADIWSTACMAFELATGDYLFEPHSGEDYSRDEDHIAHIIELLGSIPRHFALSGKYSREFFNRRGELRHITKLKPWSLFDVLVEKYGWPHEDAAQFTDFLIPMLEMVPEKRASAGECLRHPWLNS

SMILES: CNC(=O)Nc1ccc(-c2nc(N3CC4CCC(C3)O4)c3cnn(C4CCC5(CC4)OCCO5)c3n2)cc1
% of control [1]: 86%

% of control [2]: 100%
SMILES: CCN(CC)CCCCNc1ncc2cc(-c3cc(OC)cc(OC)c3)c(NC(=O)NC(C)(C)C)nc2n1

SMILES: Cc1cc(F)c(C(=O)Nc2cccc(-c3nncn3C(C)C)n2)cc1-n1cnc(C2CC2)c1
% of control [3]: 78%

SMILES: CN(C)CCOc1ccc(-c2nc(-c3ccncc3)c(-c3ccc4c(c3)CC/C4=N\O)[nH]2)cc1
% of control [4]: 75%

SMILES: Nc1cnc(N2CCc3cc(S(=O)(=O)Nc4c(F)cc(Cl)cc4F)cc(N4CCCC4=O)c32)nc1 [TP-020n]
% of control [5]: 100%

SMILES: C=CC(=O)Nc1ccc(C(=O)Nc2[nH]nc3c2CN(C(=O)N[C@H](CN(C)C)c2ccccc2)C3(C)C)cc1
% of engagement [6]: -4.8%

SMILES: N#Cc1cccc(-c2c[nH]c3ncnc(N4CCOCC4)c23)c1
% of control [7]: 77% | % of control [8]: 100%
